Literature values in patent publication US20190022132A1, “TREATMENT OR PREVENTION OF PULMONARY CONDITIONS WITH CARBON MONOXIDE” (PROTERRIS, INC., priority 2013, published 2019).

Columns and labels:
[1] = CO alveolar concentration of 25 ppm
[2] = system: models of acute lung injury; conditions: early timepoints; effect not sustained beyond the first 6 hours
[3] = system: brain; conditions: inhalation, rats
[4] = Phase I and Phase II human trials

Compound: [C-]#[O+] [CO, carbon monoxide]
- time to reach an equilibration point [1]: about 20 hours
- airway neutrophil count and lung injury [2]: decrease airway neutrophil count and lung injury at early timepoints
- oxidative damage in the brain [3]: can cause oxidative damage in the brain
- tolerability [4]: well tolerated
